27 compounds from patent US20240390338A1, “METHODS FOR TREATING NEUROGENERATIVE DISEASES” (PTC THERAPEUTICS, INC., priority 2021, published 2024) can be followed below.

Bounds are passed on as bounds.

The test system of this experiment is MAPT 3R mRNA. Briefly: RT-qPCR Assay to Quantify MAPT 3R mRNA in Cells. Also on record: key to EC2X: An EC2X value ≥3000 nM is indicated by “inactive.”; An EC2X value between >1500 nM and ≤3000 nM is indicated by one star (*); An EC2X value between >1000 nM and ≤1500 nM is indicated by two stars (**); An EC2X value between >500 nM and ≤1000 nM is indicated by three stars (***); An EC2X value between >50 nM and ≤500 nM is indicated by four stars (****); An EC2X value ≤50 nM is indicated by five stars (*****). The following applies: cells incubated with compound 24 h; 7-point concentration curve; MAPT minigene 3R RT-qPCR with GAPDH assay; EC2X interpolated from dose response curve. Type of experiment: cell-based. The protocol:
RT-qPCR Assay to Quantify MAPT 3R mRNA in Cells
Test compounds were serially diluted 3.16-fold in 100% DMSO to generate a 7-point concentration curve. Aliquots of 0.5 μL of diluted compounds were transferred to a 96-well flat bottom plate by a liquid handler. An aliquot of 0.5 μL DMSO was also transferred to separate wells and used as controls. Duplicate samples were set up for each compound concentration and for the DMSO control.
Cells were thawed and incubated in cell culture media (DMEM, 10% FBS, and 1% antibiotic cocktail) for 72 h. Cells were trypsinized, counted, and re-suspended to a concentration of 200,000 cells/mL in cell culture media. A 100 μL aliquot of the cell suspensions were plated at 20,000 cells per well in the compound containing 96 well microtiter plate and incubated for in a cell culture incubator (37° C., 5% CO2, 100% relative humidity).
After 24 h, media was aspirated from the cells and 20 μL of the RCL2 lysis buffer (10 mM Tris-HCL pH 7.4, 150 mM NaCl, 0.33% IGEPAL® CA-630) was added to each well and incubated at RT for 1 min. Chilled nuclease free water (140 μL per well) was added and the plates were immediately transferred on ice. After 1 min on ice, plates were frozen at −80° C. overnight.
Preparation of RT-qPCR Reaction Mixture:
An aliquot of 4 μL/well of the cell lysates was transferred using the liquid handler to the Armadillo 384-Well PCR plate containing 6 μL/well of the RT-qPCR reaction mixture that was prepared as detailed above. The plates were then sealed with MicroAmp™ Optical Adhesive Film followed by spinning down for 1 min and placed in the CFX384 thermocycler (BioRad).
The RT-qPCR was carried out at the following temperatures for the indicated time: • Step 1: 48° C. (30 min) • Step 2: 95° C. (10 min) • Step 3: 95° C. (15 sec) • Step 4: 60° C. (1 min); then, repeated Steps 3 and 4 for a total of 40 cycles.
The percent exon 4 skipping was calculated for each dose of compound treatment using Equations 1 and 2.
Data were fit to a dose response curve and the EC2X was interpolated using XLfit® statistical and curve fitting package.
An EC2X value between >1000 nM and ≤1500 nM is indicated by two stars (**). An EC2X value between >500 nM and ≤1000 nM is indicated by three stars (***). An EC2X value between >50 nM and ≤500 nM is indicated by four stars (****). An EC2X value ≤50 nM is indicated by five stars (*****).
Regarding `N#CC[C@H](N)Cc1sc2c(NCc3ccco3)cc(Cl)nc2c1Br` [Cpd 103, (3S)-3-amino-4-(3-bromo-5-chloro-7-{[(furan-2-yl)methyl]amino}thieno[3,2-b]pyridin-2-yl)butanenitrile], the EC (2-fold increase) is 0.05 to 0.5 µM.

For the compound `CSC[C@H](N)Cc1sc2c(NCc3ccco3)cc(Cl)nc2c1C` [Cpd 104, 2-[(2R)-2-amino-3-(methylsulfanyl)propyl]-5-chloro-N-[(furan-2-yl)methyl]-3-methylthieno[3,2-b]pyridin-7-amine], the EC (2-fold increase) was not above 0.05 µM.

With `Cc1c(C[C@@H](N)CC#N)sc2c(NCc3cccs3)cc(Cl)nc12` [Cpd 105, (3S)-3-amino-4-(5-chloro-3-methyl-7-{[(thiophen-2-yl)methyl]amino}thieno[3,2-b]pyridin-2-yl)butanenitrile], the EC (2-fold increase) is 0.05 to 0.5 µM.

As to `N#CC[C@H](N)Cc1sc2c(NCc3cccs3)cc(Cl)nc2c1Cl` [Cpd 106, (3S)-3-amino-4-(3,5-dichloro-7-{[(thiophen-2-yl)methyl]amino}thieno[3,2-b]pyridin-2-yl)butanenitrile], the EC (2-fold increase) is 0.05 to 0.5 µM.

Consider `N[C@H](Cc1sc2c(NCc3cccs3)cc(Cl)nc2c1Br)CC(F)F` [Cpd 107, 2-[(2S)-2-amino-4,4-difluorobutyl]-3-bromo-5-chloro-N-[(thiophen-2-yl)methyl]thieno[3,2-b]pyridin-7-amine], for which the EC (2-fold increase) was 0.05 to 0.5 µM.

Regarding `Cc1c(C[C@@H](N)CS(C)(=O)=O)sc2c(NCc3ccco3)cc(Cl)nc12` [Cpd 108, 2-[(2R)-2-amino-3-(methanesulfonyl)propyl]-5-chloro-N-[(furan-2-yl)methyl]-3-methylthieno[3,2-b]pyridin-7-amine], the EC (2-fold increase) is 0.05 to 0.5 µM.

Regarding `C[C@H](N)Cc1sc2c(NCc3ccco3)cc(Cl)nc2c1C#N` [Cpd 109, 2-[(2S)-2-aminopropyl]-5-chloro-7-{[(furan-2-yl)methyl]amino}thieno[3,2-b]pyridine-3-carbonitrile], the EC (2-fold increase) was not above 0.05 µM.

Take `CS(=O)(=O)C[C@H](N)Cc1sc2c(NCc3ccco3)cc(Cl)nc2c1Cl` [Cpd 113, 2-[(2R)-2-amino-3-(methanesulfonyl)propyl]-3,5-dichloro-N-[(furan-2-yl)methyl]thieno[3,2-b]pyridin-7-amine]: the EC (2-fold increase) fell in the range of 0.05 to 0.5 µM.

For `CSC[C@H](N)Cc1sc2c(NCc3ccco3)cc(Cl)nc2c1Cl` [Cpd 114, 2-[(2R)-2-amino-3-(methylsulfanyl)propyl]-3,5-dichloro-N-[(furan-2-yl)methyl]thieno[3,2-b]pyridin-7-amine], the EC (2-fold increase) is not above 0.05 µM.

As for `Cc1c(C[C@@H](N)C(=O)O)sc2c(NCc3ccco3)cc(Cl)nc12` [Cpd 115, 3-(5-chloro-7-{[(furan-2-yl)methyl]amino}-3-methylthieno[3,2-b]pyridin-2-yl)-D-alanine], the EC (2-fold increase) is not above 0.05 µM.

Regarding `Cc1c(C[C@@H](N)C(=O)N(C)C)sc2c(NCc3ccco3)cc(Cl)nc12` [Cpd 116, 3-(5-chloro-7-{[(furan-2-yl)methyl]amino}-3-methylthieno[3,2-b]pyridin-2-yl)-N,N-dimethyl-D-alaninamide], the EC (2-fold increase) is 0.05 to 0.5 µM.

For `CS(=O)(=O)C[C@H](N)Cc1sc2c(NCc3ccco3)cc(Cl)nc2c1Br` [Cpd 117, 2-[(2R)-2-amino-3-(methanesulfonyl)propyl]-3-bromo-5-chloro-N-[(furan-2-yl)methyl]thieno[3,2-b]pyridin-7-amine], the EC (2-fold increase) was in the range of 0.05 to 0.5 µM.

Regarding `CSC[C@H](N)Cc1sc2c(NCc3ccco3)cc(Cl)nc2c1Br` [Cpd 118, 2-[(2R)-2-amino-3-(methylsulfanyl)propyl]-3-bromo-5-chloro-N-[(furan-2-yl)methyl]thieno[3,2-b]pyridin-7-amine], the EC (2-fold increase) was not above 0.05 µM.

Turning to `N[C@H](Cc1sc2c(NCc3ccco3)cc(Cl)nc2c1Cl)C(=O)Nc1ccccc1F` [Cpd 120, 3-(3,5-dichloro-7-{[(furan-2-yl)methyl]amino}thieno[3,2-b]pyridin-2-yl)-N-(2-fluorophenyl)-D-alaninamide], the EC (2-fold increase) is 0.05 to 0.5 µM.

For `N[C@H](Cc1sc2c(NCc3ccco3)cc(Cl)nc2c1Cl)C(=O)Nc1ccccc1` [Cpd 122, 3-(3,5-dichloro-7-{[(furan-2-yl)methyl]amino}thieno[3,2-b]pyridin-2-yl)-N-phenyl-D-alaninamide], the EC (2-fold increase) was in the range of 0.05 to 0.5 µM.

Consider `C#C[C@H](N)Cc1sc2c(NCc3ccco3)cc(Cl)nc2c1C` [Cpd 123, 2-[(2R)-2-aminobut-3-yn-1-yl]-3-methyl-5-chloro-N-[(furan-2-yl)methyl]thieno[3,2-b]pyridin-7-amine], for which the EC (2-fold increase) was not above 0.05 µM.

Take `C[C@H](F)[C@H](N)Cc1sc2c(NCc3nccs3)cc(Cl)nc2c1Br` [Cpd 125, 2-[(2R,3S)-2-amino-3-fluorobutyl]-3-bromo-5-chloro-N-[(1,3-thiazol-2-yl)methyl]thieno[3,2-b]pyridin-7-amine]: the EC (2-fold increase) is not above 0.05 µM.

For `Cc1c(C[C@@H](N)[C@H](C)F)sc2c(NCc3cccs3)cc(Cl)nc12` [Cpd 126, 2-[(2R,3S)-2-amino-3-fluorobutyl]-5-chloro-3-methyl-N-[(thiophen-2-yl)methyl]thieno[3,2-b]pyridin-7-amine], the EC (2-fold increase) was not above 0.05 µM.

For `Cc1c(C[C@@H](N)[C@H](C)F)sc2c(NCc3nccs3)cc(Cl)nc12` [Cpd 128, 2-[(2R,3S)-2-amino-3-fluorobutyl]-5-chloro-3-methyl-N-[(1,3-thiazol-2-yl)methyl]thieno[3,2-b]pyridin-7-amine], the EC (2-fold increase) was not above 0.05 µM.

As to `C[C@H](N)C(F)(F)c1sc2c(NCc3cccs3)cc(Cl)nc2c1Cl` [Cpd 132, 2-[(2S)-2-amino-1,1-difluoropropyl]-3,5-dichloro-N-[(thiophen-2-yl)methyl]thieno[3,2-b]pyridin-7-amine], the EC (2-fold increase) was 0.05 to 0.5 µM.

For `Cc1c(C[C@@H](N)C(=O)Nc2cnccn2)sc2c(NCc3ccco3)cc(Cl)nc12` [Cpd 135, 3-(5-chloro-7-{[(furan-2-yl)methyl]amino}-3-methylthieno[3,2-b]pyridin-2-yl)-N-pyrazin-2-yl-D-alaninamide], the EC (2-fold increase) was 0.05 to 0.5 µM.

For `Cc1c(C[C@@H](N)C(=O)Nc2ccncc2)sc2c(NCc3ccco3)cc(Cl)nc12` [Cpd 140, 3-(5-chloro-7-{[(furan-2-yl)methyl]amino}-3-methylthieno[3,2-b]pyridin-2-yl)-N-pyridin-4-yl-D-alaninamide], the EC (2-fold increase) lay in the range of 0.05 to 0.5 µM.

Consider `Cc1c([C@@H](C)[C@H](C)N)sc2c(NCc3ccco3)cc(Cl)nc12` [Cpd 151, 2-[(2S,3S)-3-aminobutan-2-yl]-5-chloro-N-[(furan-2-yl)methyl]-3-methylthieno[3,2-b]pyridin-7-amine], for which the EC2X entry was “inactive”.

On to `C[C@H](N)C(F)c1sc2c(NCc3ccco3)cc(Cl)nc2c1Br` (stereo partly drawn) [Cpd 154, 2-[(2S)-2-amino-1-fluoropropyl]-3-bromo-5-chloro-N-[(furan-2-yl)methyl]thieno[3,2-b]pyridin-7-amine], for which the EC (2-fold increase) was not above 0.05 µM.

With `C[C@H](N)C(F)c1sc2c(NCc3cccs3)cc(Cl)nc2c1Br` (stereo partly drawn) [Cpd 158, 2-[(2S)-2-amino-1-fluoropropyl]-3-bromo-5-chloro-N-[(thiophen-2-yl)methyl]thieno[3,2-b]pyridin-7-amine], the EC (2-fold increase) is not above 0.05 µM.

Regarding `C[C@@H](O)[C@H](N)Cc1sc2c(NCc3ccco3)cc(Cl)nc2c1Br` [Cpd 165, (2R,3R)-3-amino-4-(3-bromo-5-chloro-7-{[(furan-2-yl)methyl]amino}thieno[3,2-b]pyridin-2-yl)butan-2-ol], the EC (2-fold increase) is not above 0.05 µM.

Turning to `C#C[C@H](N)Cc1sc2c(NCc3ccco3)cc(Cl)nc2c1Cl` [Cpd 166, 2-[(2R)-2-aminobut-3-yn-1-yl]-3,5-dichloro-N-[(furan-2-yl)methyl]thieno[3,2-b]pyridin-7-amine], the EC (2-fold increase) was 0.05 to 0.5 µM.
